Experimental data published in US11155544B2, “Heterocycle comprising tyrosine kinase inhibitors” (Principia Biopharma Inc., priority 2015, dated 2021).

Target: human recombinant BTK (Homo sapiens (Human), UniProt Q06187)
Assay: BTK Enzymatic Activity Assay (Caliper-based kinase assay)
Type: biochemical
Details: human recombinant BTK (0.5 nM), ATP (16 μM), peptide substrate (1 μM), room temperature for 3 h
Procedure: A Caliper-based kinase assay (Caliper Life Sciences, Hopkinton, Mass.) was used to measure inhibition of BTK kinase activity of a compound of the present disclosure. Serial dilutions of test compounds were incubated with human recombinant BTK (0.5 nM), ATP (16 μM) and a phosphoacceptor peptide substrate FAM-GEEPLYWSFPAKKK-NH2 (1 μM) at room temperature for 3 h. The reaction was then terminated with EDTA, final concentration 20 mM and the phosphorylated reaction product was quantified on a Caliper Desktop Profiler (Caliper LabChip 3000). Percent inhibition was calculated for each compound dilution and the concentration that produced 50% inhibition was calculated. This value is presented as the IC50.

human recombinant BTK, sequence (Q06187 whole entry): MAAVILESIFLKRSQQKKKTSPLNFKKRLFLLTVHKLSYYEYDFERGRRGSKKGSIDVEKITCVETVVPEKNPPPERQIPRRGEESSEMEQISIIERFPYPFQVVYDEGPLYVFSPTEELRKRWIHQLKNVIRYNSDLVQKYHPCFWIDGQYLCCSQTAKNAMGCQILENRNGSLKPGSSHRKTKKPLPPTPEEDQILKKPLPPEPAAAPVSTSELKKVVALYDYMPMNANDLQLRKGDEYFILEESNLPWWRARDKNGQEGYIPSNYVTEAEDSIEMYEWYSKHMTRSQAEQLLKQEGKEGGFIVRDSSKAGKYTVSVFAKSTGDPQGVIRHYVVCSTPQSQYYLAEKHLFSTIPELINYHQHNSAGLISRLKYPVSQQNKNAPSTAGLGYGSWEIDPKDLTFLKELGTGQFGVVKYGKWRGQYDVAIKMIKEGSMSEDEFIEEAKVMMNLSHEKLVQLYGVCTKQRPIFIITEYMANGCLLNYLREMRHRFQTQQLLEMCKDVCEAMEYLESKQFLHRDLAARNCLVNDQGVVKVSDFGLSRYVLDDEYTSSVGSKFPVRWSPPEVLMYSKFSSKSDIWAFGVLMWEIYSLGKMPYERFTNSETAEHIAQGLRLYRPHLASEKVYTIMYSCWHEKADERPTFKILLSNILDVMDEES

In order of falling IC50:
1. CC(C)(C=C(C#N)C(=O)N1CCC[C@H]1Cn1nc(-c2ccc(C(=O)Nc3ccccn3)cc2)c2c(N)nccc21)N1CCN(C2COC2)CC1 [Compound 15, (S)-4-(4-amino-1-((1-(2-cyano-4-methyl-4-(4-(oxetan-3-yl)piperazin-1-yl)pent-2-enoyl)pyrrolidin-2-yl)methyl)-1H-pyrazolo[4,3-c]pyridin-3-yl)-N-(pyridin-2-yl)benzamide]  22.4 nM
2. CN1CCN(C(C)(C)C=C(C#N)C(=O)N2CCC[C@H]2Cn2nc(-c3ccc(C(=O)Nc4ccccn4)cc3)c3c(N)nccc32)CC1 [Compound 20, (S)-4-(4-amino-1-((1-(2-cyano-4-methyl-4-(4-methylpiperazin-1-yl)pent-2-enoyl)pyrrolidin-2-yl)methyl)-1H-pyrazolo[4,3-c]pyridin-3-yl)-N-(pyridin-2-yl)benzamide]  19.1 nM
3. CC(C)(C=C(C#N)C(=O)N1CCC[C@H]1Cn1nc(-c2ccc(C(=O)Nc3ccccn3)cc2)c2c(N)nccc21)N1CCOCC1 [Compound 21, (S)-4-(4-amino-1-((1-(2-cyano-4-methyl-4-morpholinopent-2-enoyl)pyrrolidin-2-yl)methyl)-1H-pyrazolo[4,3-c]pyridin-3-yl)-N-(pyridin-2-yl)benzamide]  18.6 nM
4. CCN1CCN(C(C)(C)C=C(C#N)C(=O)N2CCC[C@H]2Cn2nc(-c3ccc(Oc4ccccc4)cc3F)c3c(N)nccc32)CC1=O [Compound 31, (S)-2-(2-((4-amino-3-(2-fluoro-4-phenoxyphenyl)-1H-pyrazolo[4,3-c]pyridin-1-yl)methyl)pyrrolidine-1-carbonyl)-4-(4-ethyl-3-oxopiperazin-1-yl)-4-methylpent-2-enenitrile]  11.5 nM
5. CN1CCN(C(C)(C)C=C(C#N)C(=O)N2CCC[C@H]2Cn2nc(-c3ccc(Oc4ccccc4)cc3F)c3c(N)nccc32)CC1=O [Compound 32, (S)-2-(2-((4-amino-3-(2-fluoro-4-phenoxyphenyl)-1H-pyrazolo[4,3-c]pyridin-1-yl)methyl)pyrrolidine-1-carbonyl)-4-methyl-4-(4-methyl-3-oxopiperazin-1-yl)pent-2-enenitrile]  8.9 nM
6. CN1CCN(C(C)(C)C=C(C#N)C(=O)N2CCC[C@@H](n3nc(-c4ccc(C(=O)Nc5ccccn5)cc4)c4c(N)nccc43)C2)CC1 [Compound 45, (R)-4-(4-amino-1-(1-(2-cyano-4-methyl-4-(4-methylpiperazin-1-yl)pent-2-enoyl)piperidin-3-yl)-1H-pyrazolo[4,3-c]pyridin-3-yl)-N-(pyridin-2-yl)benzamide]  4.6 nM
7. CC(C)(C=C(C#N)C(=O)N1CCC[C@@H](n2nc(-c3ccc(C(=O)Nc4cc(F)ccn4)cc3)c3c(N)nccc32)C1)N1CCN(C2COC2)CC1 [Compound 50, (R)-4-(4-amino-1-(1-(2-cyano-4-methyl-4-(4-(oxetan-3-yl)piperazin-1-yl)pent-2-enoyl)piperidin-3-yl)-1H-pyrazolo[4,3-c]pyridin-3-yl)-N-(4-fluoropyridin-2-yl)benzamide]  4.2 nM
8. CC(C)(C=C(C#N)C(=O)N1CCC[C@@H](n2nc(-c3ccc(C(=O)Nc4ccccn4)cc3)c3c(N)nccc32)C1)N1CCN(C2COC2)CC1 [Compound 47, (R)-4-(4-amino-1-(1-(2-cyano-4-methyl-4-(4-(oxetan-3-yl)piperazin-1-yl)pent-2-enoyl)piperidin-3-yl)-1H-pyrazolo[4,3-c]pyridin-3-yl)-N-(pyridin-2-yl)benzamide]  4.1 nM
9. CC1(C=C(C#N)C(=O)N2CCC[C@@H](n3nc(-c4ccc(Oc5ccccc5)cc4F)c4c(N)nccc43)C2)CCOCC1 [Compound 48, (R)-2-(3-(4-amino-3-(2-fluoro-4-phenoxyphenyl)-1H-pyrazolo[4,3-c]pyridin-1-yl)piperidine-1-carbonyl)-3-(4-methyltetrahydro-2H-pyran-4-yl)acrylonitrile]  3.1 nM
10. CC1(C=C(C#N)C(=O)N2CCC[C@@H](n3nc(-c4ccc(Oc5ccccc5)cc4)c4c(N)nccc43)C2)CCN(C2COC2)CC1 [Compound 42, (R)-2-(3-(4-amino-3-(4-phenoxyphenyl)-1H-pyrazolo[4,3-c]pyridin-1-yl)piperidine-1-carbonyl)-3-(4-methyl-1-(oxetan-3-yl)piperidin-4-yl)acrylonitrile]  2.6 nM
11. CCN1CCN(C(C)(C)C=C(C#N)C(=O)N2CCC[C@@H](n3nc(-c4ccc(Oc5ccccc5)cc4F)c4c(N)nccc43)C2)CC1=O [Compound 40, (R)-2-(3-(4-amino-3-(2-fluoro-4-phenoxyphenyl)-1H-pyrazolo[4,3-c]pyridin-1-yl)piperidine-1-carbonyl)-4-methyl-4-(4-ethyl-3-oxopiperazin-1-yl)pent-2-enenitrile]  2.4 nM
12. CCN1CCN(C(C)(C)C=C(C#N)C(=O)N2CCC[C@@H](n3nc(-c4ccc(Oc5ccccc5)cc4)c4c(N)nccc43)C2)CC1=O [Compound 41, (R)-2-(3-(4-amino-3-(4-phenoxyphenyl)-1H-pyrazolo[4,3-c]pyridin-1-yl)piperidine-1-carbonyl)-4-(4-ethyl-3-oxopiperazin-1-yl)-4-methylpent-2-enenitrile]  2.4 nM
13. CC(C)(C=C(C#N)C(=O)N1CCC[C@@H](c2nc(-c3ccc(Oc4ccccc4)cc3)c3c(N)nccn23)C1)N1CCN(C2COC2)CC1 [Compound 35, (R)-2-(3-(8-amino-1-(4-phenoxyphenyl)imidazo[1,5-a]pyrazin-3-yl)piperidine-1-carbonyl)-4-methyl-4-(4-(oxetan-3-yl)piperazin-1-yl)pent-2-enenitrile]  2.1 nM
14. CN(C1COC1)C(C)(C)C=C(C#N)C(=O)N1CCC[C@@H](n2nc(-c3ccc(C(=O)Nc4ccccn4)cc3)c3c(N)nccc32)C1 [Compound 46, (R)-4-(4-amino-1-(1-(2-cyano-4-methyl-4-(methyl(oxetan-3-yl)amino)pent-2-enoyl)piperidin-3-yl)-1H-pyrazolo[4,3-c]pyridin-3-yl)-N-(pyridin-2-yl)benzamide]  2.1 nM
15. CC1(C=C(C#N)C(=O)N2CCC[C@@H](n3nc(-c4ccc(Oc5ccccc5)cc4)c4c(N)nccc43)C2)CCOCC1 [Compound 43, (R)-2-(3-(4-amino-3-(4-phenoxyphenyl)-1H-pyrazolo[4,3-c]pyridin-1-yl)piperidine-1-carbonyl)-3-(4-methyltetrahydro-2H-pyran-4-yl)acrylonitrile]  2 nM
16. CC1(C=C(C#N)C(=O)N2CCC[C@@H](c3nc(-c4ccc(Oc5ccccc5)cc4F)c4c(N)nccn34)C2)CCOCC1 [Compound 53, (R)-2-(3-(8-amino-1-(2-fluoro-4-phenoxyphenyl)imidazo[1,5-a]pyrazin-3-yl)piperidine-1-carbonyl)-3-(4-methyltetrahydro-2H-pyran-4-yl)acrylonitrile]  2 nM
17. CC(C)(C=C(C#N)C(=O)N1CCC[C@@H](c2nc(-c3ccc(Oc4ccccc4)cc3F)c3c(N)nccn23)C1)N1CCN(C2COC2)CC1 [Compound 2, (R)-2-(3-(8-amino-1-(2-fluoro-4-phenoxyphenyl)imidazo[1,5-a]pyrazin-3-yl)piperidine-1-carbonyl)-4-methyl-4-(4-(oxetan-3-yl)piperazin-1-yl)pent-2-enenitrile]  1.9 nM
18. CC(C)(C=C(C#N)C(=O)N1CCC[C@@H](n2nc(-c3ccc(Oc4ccccc4)cc3)c3c(N)nccc32)C1)N1CCN(C2COC2)CC1 [Compound 34, (R)-2-(3-(4-amino-3-(4-phenoxyphenyl)-1H-pyrazolo[4,3-c]pyridin-1-yl)piperidine-1-carbonyl)-4-methyl-4-(4-(oxetan-3-yl)piperazin-1-yl)pent-2-enenitrile]  1.9 nM
19. CC1(C=C(C#N)C(=O)N2CCC[C@@H](n3nc(-c4ccc(Oc5ccccc5)cc4F)c4c(N)nccc43)C2)CCN(C2COC2)CC1 [Compound 49, (R)-2-(3-(4-amino-3-(2-fluoro-4-phenoxyphenyl)-1H-pyrazolo[4,3-c]pyridin-1-yl)piperidine-1-carbonyl)-3-(4-methyl-1-(oxetan-3-yl)piperidin-4-yl)acrylonitrile]  1.8 nM
20. CN1CCN(C(C)(C)C=C(C#N)C(=O)N2CCC[C@@H](c3nc(-c4ccc(Oc5ccccc5)cc4)c4c(N)nccn34)C2)CC1=O [Compound 52, (R)-2-(3-(8-amino-1-(4-phenoxyphenyl)imidazo[1,5-a]pyrazin-3-yl)piperidine-1-carbonyl)-4-methyl-4-(4-methyl-3-oxopiperazin-1-yl)pent-2-enenitrile]  1.8 nM
21. CC(C)(C=C(C#N)C(=O)N1CCC[C@@H](n2nc(-c3ccc(Oc4ccccc4)cc3)c3c(N)nccc32)C1)N1CCN(C2(C)COC2)CC1 [Compound 39, (R)-2-(3-(4-amino-3-(4-phenoxyphenyl)-1H-pyrazolo[4,3-c]pyridin-1-yl)piperidine-1-carbonyl)-4-methyl-4-(4-(3-methyloxetan-3-yl)piperazin-1-yl)pent-2-enenitrile]  1.3 nM
22. CC(C)(C=C(C#N)C(=O)N1CCC[C@@H](n2nc(-c3ccc(Oc4c(F)cccc4F)cc3)c3c(N)nccc32)C1)N1CCN(C2COC2)CC1 [Compound 28, (R)-2-(3-(4-amino-3-(4-(2,6-difluorophenoxy)phenyl)-1H-pyrazolo[4,3-c]pyridin-1-yl)piperidine-1-carbonyl)-4-methyl-4-(4-(oxetan-3-yl)piperazin-1-yl)pent-2-enenitrile]  0.9 nM
23. CC(C)(C=C(C#N)C(=O)N1CCC[C@@H](n2nc(-c3ccc(Oc4cccc(F)c4F)cc3)c3c(N)nccc32)C1)N1CCN(C2COC2)CC1 [Compound 29, (R)-2-(3-(4-amino-3-(4-(2,3-difluorophenoxy)phenyl)-1H-pyrazolo[4,3-c]pyridin-1-yl)piperidine-1-carbonyl)-4-methyl-4-(4-(oxetan-3-yl)piperazin-1-yl)pent-2-enenitrile]  0.8 nM
